US20190200664A1, “WATER AND FAT SOLUBLE MICRONUTIENT STABILIZED PARTICLES” (Massachusetts Institute of Technology, priority 2018, published 2019)

Test: Iron oxidation (ferrous to ferric) during boiling in water in an open container
Assay type: physicochemical
Details: 2 hours
Experimental: Dry micronutrient-loaded MPs were dispersed in water and then heated at 100° C. for 2 hours before being centrifuged at 4000 rpm for 5 min. Chemically stable MNs in both the supernatant and the MPs were quantified using the methods as described above. The stability percentage equals to the ratio of stable MN after heating as determined by HPLC to the actual loading content of the MN in the MPs. For samples in non-encapsulated form, they were either dissolved in water (water soluble vitamins such as vitamins B9 and B12) or dispersed in water (fat soluble vitamins such as vitamins A and D) before being heated for 2 hrs. Iron-loaded HA-EPO-MPs were dispersed in water and then heated at 100° C. for 2 hours and analyzed for ferrous and ferric content as described above.
It was investigated how iron encapsulation in HA-EPO-MPs impacts oxidation during boiling in water in an open container, since both higher temperatures and atmospheric exposure will accelerate iron oxidation. For encapsulated iron, less than 2% oxidizes to ferric iron, and for non-encapsulated iron over 15% is oxidized to ferric iron (FIG. 4D).

In the case of ferrous sulfate [Non-Encapsulated Fe], the “iron oxidized to ferric iron” value is reported as “over 15%”.
